Experiments:
[1] = biological target: T1, KV channel (voltage-gated potassium channel family) (Homo sapiens, UniProt O43525+O43526+O95259+P16389+P17658+P22001+P22459+P22460+P48547+P51787+P56696+Q03721+Q09470+Q12809+Q14003+Q14721+Q16322+Q6PIU1+Q8NCM2+Q8TAE7+Q8TDN1+Q8TDN2+Q92953+Q96KK3+Q96L42+Q96PR1+Q96RP8+Q9BQ31+Q9H252+Q9H3M0+Q9NR82+Q9NS40+Q9NSA2+Q9NZV8+Q9UIX4+Q9UJ96+Q9UK17+Q9ULD8+Q9ULS6+Q9UQ05); test: Inhibition of KV channel (unknown origin) at 10 uM relative to control; format: protein assay
[2] = biological target: Bromodomain adjacent to zinc finger domain protein 1A (Homo sapiens) (UniProt Q9NRL2); conditions: dose 10.0 µM
Bromodomain adjacent to zinc finger domain protein 1A (Homo sapiens), sequence (Q9NRL2 whole entry, the tested form may be a part): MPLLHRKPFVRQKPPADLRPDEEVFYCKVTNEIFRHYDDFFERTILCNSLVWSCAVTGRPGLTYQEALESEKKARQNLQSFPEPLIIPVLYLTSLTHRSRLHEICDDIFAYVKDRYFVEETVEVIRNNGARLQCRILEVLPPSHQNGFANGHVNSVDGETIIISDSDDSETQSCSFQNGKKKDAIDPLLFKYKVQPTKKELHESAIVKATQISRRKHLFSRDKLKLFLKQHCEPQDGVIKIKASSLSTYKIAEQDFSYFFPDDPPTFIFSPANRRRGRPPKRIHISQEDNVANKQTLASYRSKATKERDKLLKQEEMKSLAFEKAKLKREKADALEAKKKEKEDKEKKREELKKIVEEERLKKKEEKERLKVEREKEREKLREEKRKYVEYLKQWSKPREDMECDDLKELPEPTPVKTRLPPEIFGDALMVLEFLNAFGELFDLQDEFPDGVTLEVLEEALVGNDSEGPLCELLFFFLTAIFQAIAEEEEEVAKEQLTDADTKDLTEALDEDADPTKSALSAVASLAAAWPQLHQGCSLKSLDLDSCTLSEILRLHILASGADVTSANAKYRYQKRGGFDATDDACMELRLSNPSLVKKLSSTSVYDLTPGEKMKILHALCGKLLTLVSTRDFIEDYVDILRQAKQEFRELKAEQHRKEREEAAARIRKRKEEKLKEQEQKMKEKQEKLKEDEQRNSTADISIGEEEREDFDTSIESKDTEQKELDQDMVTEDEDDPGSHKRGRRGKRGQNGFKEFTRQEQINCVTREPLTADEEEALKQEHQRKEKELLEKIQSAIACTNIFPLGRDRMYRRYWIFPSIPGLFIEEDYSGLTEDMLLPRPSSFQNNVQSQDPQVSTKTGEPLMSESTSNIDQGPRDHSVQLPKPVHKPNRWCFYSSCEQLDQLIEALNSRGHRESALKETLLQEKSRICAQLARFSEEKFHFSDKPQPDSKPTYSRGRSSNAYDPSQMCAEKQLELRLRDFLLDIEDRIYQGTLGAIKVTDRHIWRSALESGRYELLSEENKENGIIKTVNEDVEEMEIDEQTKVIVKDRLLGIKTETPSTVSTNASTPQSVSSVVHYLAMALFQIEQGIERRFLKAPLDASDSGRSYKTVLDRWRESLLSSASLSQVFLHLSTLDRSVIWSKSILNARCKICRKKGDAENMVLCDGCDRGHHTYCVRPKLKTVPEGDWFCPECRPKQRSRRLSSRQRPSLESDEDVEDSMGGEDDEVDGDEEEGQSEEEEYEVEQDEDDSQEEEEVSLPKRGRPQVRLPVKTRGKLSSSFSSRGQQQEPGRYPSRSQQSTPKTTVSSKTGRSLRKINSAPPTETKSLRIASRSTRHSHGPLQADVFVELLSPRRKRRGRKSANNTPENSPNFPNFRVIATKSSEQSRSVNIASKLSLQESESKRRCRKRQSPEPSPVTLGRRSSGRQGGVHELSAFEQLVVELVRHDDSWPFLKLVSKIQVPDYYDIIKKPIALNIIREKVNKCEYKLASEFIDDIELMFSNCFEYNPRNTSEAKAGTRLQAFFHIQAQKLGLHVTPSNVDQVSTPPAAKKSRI

[3] = biological target: ATPase family AAA domain-containing protein 2 (Homo sapiens) (UniProt Q6PL18); conditions: dose 10.0 µM
[4] = biological target: Bromodomain-containing protein 3 (Homo sapiens) (UniProt Q15059); conditions: dose 10.0 µM
Bromodomain-containing protein 3 (Homo sapiens), sequence (Q15059 2-726 limits assumed): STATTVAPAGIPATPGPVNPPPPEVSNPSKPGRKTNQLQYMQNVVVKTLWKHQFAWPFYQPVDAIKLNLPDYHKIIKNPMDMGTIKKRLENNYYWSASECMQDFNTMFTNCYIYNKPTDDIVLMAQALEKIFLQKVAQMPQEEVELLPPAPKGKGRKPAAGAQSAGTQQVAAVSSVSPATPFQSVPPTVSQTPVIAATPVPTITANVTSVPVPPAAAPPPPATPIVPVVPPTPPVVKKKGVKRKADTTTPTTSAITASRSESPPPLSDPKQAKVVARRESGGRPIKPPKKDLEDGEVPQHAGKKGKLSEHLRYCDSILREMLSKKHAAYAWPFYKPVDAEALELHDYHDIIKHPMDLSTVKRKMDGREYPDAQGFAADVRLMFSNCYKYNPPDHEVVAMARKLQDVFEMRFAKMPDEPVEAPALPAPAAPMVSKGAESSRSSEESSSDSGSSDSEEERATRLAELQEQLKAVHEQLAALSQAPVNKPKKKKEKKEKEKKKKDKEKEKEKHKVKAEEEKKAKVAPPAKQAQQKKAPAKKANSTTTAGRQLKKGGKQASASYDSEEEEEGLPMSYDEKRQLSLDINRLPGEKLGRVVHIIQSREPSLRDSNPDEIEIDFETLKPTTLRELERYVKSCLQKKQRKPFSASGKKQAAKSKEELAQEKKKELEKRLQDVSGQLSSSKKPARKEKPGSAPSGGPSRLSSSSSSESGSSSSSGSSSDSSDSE

Homo sapiens = organism: Homo sapiens; test: Binding affinity to Cl channel GABA gated receptor (unknown origin) assessed as specific binding at 10 uM relative to control
[5] = biological target: Bromodomain-containing protein 2 (Homo sapiens) (UniProt P25440); conditions: dose 10.0 µM
[6] = biological target: Protein polybromo-1 (Homo sapiens) (UniProt Q86U86); conditions: dose 10.0 µM
[7] = biological target: Histone acetyltransferase KAT2A (Homo sapiens) (UniProt Q92830); conditions: dose 10.0 µM
[8] = biological target: Histone acetyltransferase p300 (Homo sapiens) (UniProt Q09472); conditions: dose 10.0 µM
[9] = biological target: Beta-1 adrenergic receptor (Homo sapiens) (UniProt P08588); test: Binding affinity to Beta1 (unknown origin) assessed as specific binding at 10 uM relative to control
[10] = biological target: 5-hydroxytryptamine receptor 7 (Homo sapiens) (UniProt P34969); test: Inhibition of 5HT7 (unknown origin) at 10 uM relative to control
[11] = biological target: Transcription initiation factor TFIID subunit 1-like (Homo sapiens) (UniProt Q8IZX4); conditions: dose 10.0 µM
Transcription initiation factor TFIID subunit 1-like (Homo sapiens), sequence (Q8IZX4 whole entry): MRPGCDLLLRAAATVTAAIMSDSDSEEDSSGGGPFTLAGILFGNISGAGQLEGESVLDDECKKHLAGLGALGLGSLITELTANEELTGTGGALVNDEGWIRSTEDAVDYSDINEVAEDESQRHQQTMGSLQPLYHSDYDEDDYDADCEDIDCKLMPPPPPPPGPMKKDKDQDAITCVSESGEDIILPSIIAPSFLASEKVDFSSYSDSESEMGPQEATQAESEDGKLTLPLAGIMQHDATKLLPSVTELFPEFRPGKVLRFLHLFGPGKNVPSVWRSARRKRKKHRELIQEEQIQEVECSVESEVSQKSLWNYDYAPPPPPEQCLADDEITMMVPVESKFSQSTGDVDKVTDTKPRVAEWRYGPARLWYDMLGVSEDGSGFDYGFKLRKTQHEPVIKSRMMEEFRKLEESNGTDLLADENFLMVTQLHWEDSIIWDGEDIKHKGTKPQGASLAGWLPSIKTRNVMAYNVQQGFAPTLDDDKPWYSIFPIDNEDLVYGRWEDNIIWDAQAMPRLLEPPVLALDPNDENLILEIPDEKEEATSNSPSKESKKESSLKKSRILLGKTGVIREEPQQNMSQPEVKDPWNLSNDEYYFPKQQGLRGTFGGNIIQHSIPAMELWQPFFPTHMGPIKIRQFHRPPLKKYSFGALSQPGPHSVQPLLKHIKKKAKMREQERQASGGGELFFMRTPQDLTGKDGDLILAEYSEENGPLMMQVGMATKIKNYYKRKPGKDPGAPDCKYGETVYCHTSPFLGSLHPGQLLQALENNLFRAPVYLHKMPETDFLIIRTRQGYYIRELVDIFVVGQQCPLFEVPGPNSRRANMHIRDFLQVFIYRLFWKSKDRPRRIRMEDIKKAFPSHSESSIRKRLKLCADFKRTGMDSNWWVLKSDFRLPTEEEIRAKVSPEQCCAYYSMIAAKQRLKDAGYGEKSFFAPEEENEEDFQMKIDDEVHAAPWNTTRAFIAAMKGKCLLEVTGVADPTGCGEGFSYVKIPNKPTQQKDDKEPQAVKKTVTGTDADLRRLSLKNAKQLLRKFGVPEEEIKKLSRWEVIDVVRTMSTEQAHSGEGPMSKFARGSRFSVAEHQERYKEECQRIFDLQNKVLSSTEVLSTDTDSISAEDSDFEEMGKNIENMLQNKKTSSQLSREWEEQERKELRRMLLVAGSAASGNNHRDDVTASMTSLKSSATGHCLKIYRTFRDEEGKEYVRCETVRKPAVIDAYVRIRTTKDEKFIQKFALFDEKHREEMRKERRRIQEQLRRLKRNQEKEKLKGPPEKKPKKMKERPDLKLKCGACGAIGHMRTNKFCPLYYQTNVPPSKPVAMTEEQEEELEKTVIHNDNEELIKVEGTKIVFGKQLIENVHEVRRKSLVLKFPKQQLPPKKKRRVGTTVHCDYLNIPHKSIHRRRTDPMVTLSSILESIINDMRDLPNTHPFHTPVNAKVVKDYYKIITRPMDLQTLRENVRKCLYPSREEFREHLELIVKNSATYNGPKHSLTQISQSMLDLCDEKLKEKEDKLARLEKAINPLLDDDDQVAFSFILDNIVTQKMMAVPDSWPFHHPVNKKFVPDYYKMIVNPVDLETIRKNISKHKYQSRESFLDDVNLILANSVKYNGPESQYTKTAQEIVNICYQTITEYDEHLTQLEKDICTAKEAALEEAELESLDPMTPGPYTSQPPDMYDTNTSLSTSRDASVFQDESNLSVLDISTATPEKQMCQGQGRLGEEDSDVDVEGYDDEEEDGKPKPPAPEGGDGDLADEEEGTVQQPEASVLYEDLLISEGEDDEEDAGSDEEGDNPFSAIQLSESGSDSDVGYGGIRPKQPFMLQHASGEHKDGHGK

[12] = biological target: CREB-binding protein (Homo sapiens) (UniProt Q92793); conditions: dose 10.0 µM
[13] = biological target: Bromodomain adjacent to zinc finger domain protein 2A (Homo sapiens) (UniProt Q9UIF9); conditions: dose 10.0 µM
[14] = biological target: T2, Adrenergic receptor alpha-2 (Homo sapiens) (UniProt P08913+P18825+P18089); test: Inhibition of Alpha 2 receptor (unknown origin) at 10 uM relative to control; format: protein assay
[15] = biological target: 5-hydroxytryptamine receptor 6 (Homo sapiens) (UniProt P50406); test: Binding affinity to 5HT6 (unknown origin) assessed as specific binding at 10 uM relative to control
5-hydroxytryptamine receptor 6 (Homo sapiens), sequence (P50406 whole entry): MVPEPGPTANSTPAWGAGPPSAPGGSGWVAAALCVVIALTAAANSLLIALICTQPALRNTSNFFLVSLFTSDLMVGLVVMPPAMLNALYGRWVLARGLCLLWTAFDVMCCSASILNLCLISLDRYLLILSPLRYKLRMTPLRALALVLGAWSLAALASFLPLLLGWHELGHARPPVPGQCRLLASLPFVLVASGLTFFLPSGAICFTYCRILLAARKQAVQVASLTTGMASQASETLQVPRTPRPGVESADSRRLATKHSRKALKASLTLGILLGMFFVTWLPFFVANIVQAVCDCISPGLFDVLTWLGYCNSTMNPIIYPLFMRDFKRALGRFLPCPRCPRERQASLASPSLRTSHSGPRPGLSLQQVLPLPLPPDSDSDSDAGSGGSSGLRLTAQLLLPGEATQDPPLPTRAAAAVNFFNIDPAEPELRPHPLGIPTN

[16] = biological target: Nuclear body protein SP140 (Homo sapiens) (UniProt Q13342); conditions: dose 10.0 µM
[17] = biological target: Transcription initiation factor TFIID subunit 1-like (Homo sapiens) (UniProt Q8IZX4); conditions: dose 10.0 µM; remark: listed apart in the source
[18] = biological target: Transcription intermediary factor 1-beta (Homo sapiens) (UniProt Q13263); conditions: dose 10.0 µM
[19] = biological target: T1, KV channel (voltage-gated potassium channel family); test: Binding affinity to KV channel (unknown origin) assessed as specific binding at 10 uM relative to control; format: protein assay; conditions: read-out: Activity
[20] = biological target: Beta-2 adrenergic receptor (Homo sapiens) (UniProt P07550); test: Binding affinity to Beta2 (unknown origin) assessed as specific binding at 10 uM relative to control
Beta-2 adrenergic receptor (Homo sapiens), sequence (P07550 whole entry, looked up): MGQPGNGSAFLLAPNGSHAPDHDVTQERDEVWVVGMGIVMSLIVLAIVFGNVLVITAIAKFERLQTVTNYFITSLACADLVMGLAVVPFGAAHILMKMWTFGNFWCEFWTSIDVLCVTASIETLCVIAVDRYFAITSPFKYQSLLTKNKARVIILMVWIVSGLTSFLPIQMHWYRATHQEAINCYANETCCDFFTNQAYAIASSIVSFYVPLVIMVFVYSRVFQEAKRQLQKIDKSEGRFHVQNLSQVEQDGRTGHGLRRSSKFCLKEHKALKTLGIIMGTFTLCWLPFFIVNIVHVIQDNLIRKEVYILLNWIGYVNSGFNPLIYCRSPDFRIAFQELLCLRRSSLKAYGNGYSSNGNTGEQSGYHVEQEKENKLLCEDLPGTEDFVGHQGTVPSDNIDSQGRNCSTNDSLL

[21] = biological target: Muscarinic acetylcholine receptor M2 (Homo sapiens) (UniProt P08172); test: Inhibition of M2 receptor (unknown origin) at 10 uM relative to control
Peregrin (Homo sapiens) = biological target: T3, Peregrin (Homo sapiens) (UniProt P55201); test: Binding affinity to […] (unknown origin) assessed as change in enthalpy at 17 uM by Isothermal titration calorimetry
T3 sequence (whole entry): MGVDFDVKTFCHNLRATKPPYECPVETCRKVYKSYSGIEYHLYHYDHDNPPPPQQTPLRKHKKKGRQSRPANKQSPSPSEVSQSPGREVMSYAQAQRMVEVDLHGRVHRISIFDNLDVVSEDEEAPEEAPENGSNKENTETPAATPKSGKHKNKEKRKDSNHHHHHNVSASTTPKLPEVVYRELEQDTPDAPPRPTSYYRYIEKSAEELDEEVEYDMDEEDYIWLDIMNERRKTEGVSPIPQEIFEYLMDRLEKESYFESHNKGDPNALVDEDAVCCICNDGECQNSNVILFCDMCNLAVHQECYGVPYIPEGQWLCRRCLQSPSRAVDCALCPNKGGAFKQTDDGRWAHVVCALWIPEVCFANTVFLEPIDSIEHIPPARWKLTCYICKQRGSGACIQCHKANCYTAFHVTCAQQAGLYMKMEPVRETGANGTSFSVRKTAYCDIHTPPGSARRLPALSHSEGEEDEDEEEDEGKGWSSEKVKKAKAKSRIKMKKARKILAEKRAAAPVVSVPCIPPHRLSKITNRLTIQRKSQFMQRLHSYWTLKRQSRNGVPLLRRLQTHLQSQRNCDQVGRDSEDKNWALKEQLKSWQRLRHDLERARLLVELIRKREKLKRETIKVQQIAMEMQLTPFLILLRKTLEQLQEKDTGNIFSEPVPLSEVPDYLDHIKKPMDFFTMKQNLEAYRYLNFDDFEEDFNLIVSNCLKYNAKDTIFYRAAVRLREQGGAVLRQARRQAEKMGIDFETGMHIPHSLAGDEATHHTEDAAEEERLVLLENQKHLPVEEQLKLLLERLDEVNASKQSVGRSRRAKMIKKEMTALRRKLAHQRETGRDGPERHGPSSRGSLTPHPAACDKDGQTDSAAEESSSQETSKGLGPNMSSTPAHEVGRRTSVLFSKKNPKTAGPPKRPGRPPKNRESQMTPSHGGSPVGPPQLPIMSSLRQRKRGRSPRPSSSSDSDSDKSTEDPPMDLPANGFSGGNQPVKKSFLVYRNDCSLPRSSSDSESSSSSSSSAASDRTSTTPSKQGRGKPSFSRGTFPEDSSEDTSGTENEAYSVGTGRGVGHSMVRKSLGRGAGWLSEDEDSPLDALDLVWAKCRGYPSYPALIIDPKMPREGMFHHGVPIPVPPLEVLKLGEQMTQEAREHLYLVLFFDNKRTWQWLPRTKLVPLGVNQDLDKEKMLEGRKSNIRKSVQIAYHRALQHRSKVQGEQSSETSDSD

[22] = biological target: T2, Adrenergic receptor alpha-2 (Homo sapiens); test: Binding affinity to Alpha 2 receptor (unknown origin) assessed as specific binding at 10 uM relative to control; format: protein assay

inhibition at 10 µM [1]: -18%
ΔTm [2]: 0.15 °C
ΔTm [3]: 0.14 °C
ΔTm [4]: 1.6 °C
Activity (Homo sapiens): 95.3%
ΔTm [5]: 0.8 °C
ΔTm [6]: 0.6 °C
ΔTm [7]: -0.4 °C
ΔTm [8]: 0.7 °C
Activity [9]: 92.6%
inhibition [10]: 2%
ΔTm [11]: 1.4 °C
ΔTm [12]: 0.4 °C
ΔTm [13]: 0.2 °C
inhibition [14]: -3%
Activity [15]: 49.9%
ΔTm [16]: 0.1 °C
ΔTm [17]: 0.3 °C
ΔTm [18]: 0.2 °C
activity at 10 µM [19]: 124%
Activity [20]: 93.6%
inhibition [21]: 9%
deltaH (Peregrin (Homo sapiens)): -12.6 kcal/mol
Activity [22]: 112%
Compound: COc1cc2c(cc1NS(=O)(=O)c1ccc(Br)cc1C)n(C)c(=O)n2C

Source: ChEMBL document CHEMBL5715956, “Selective Targeting of Bromodomains of the Bromodomain-PHD Fingers Family Impairs Osteoclast Differentiation” (ACS Chem Biol, 2017)
